Some test systems named below: NCI-H522 lung; NCI-H226 lung; T-47D breast; MDA-MB-435; HOP-62 NSCLC; SK-MEL-5 melanoma; MOLT-4 leukemia.
Experiment in all cases: NCI tumour cell line growth inhibition, 48 h

Values joined by “and” are separate entries in the source; they are usually repeats but may differ in a detail not shown here. Equal entries are not always repeated.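 Where inhibition never reached the appropriate level, the endpoint shown equals the highest concentration tested. Otherwise, values were interpolated linearly from a five-concentration, 48-hour dose response in 96-well plates. At the GI50, growth is halved. TGI marks complete inhibition of growth.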

Take `O=C(O)Cc1cccc2c(=O)c3cccc([N+](=O)[O-])c3oc12`: the TGI with NCI-H522 lung, with NCI-H226 lung, with T-47D breast, in the experiment on MDA-MB-435, in the experiment with HOP-62 NSCLC and in the experiment on SK-MEL-5 melanoma was above 100 µM in each case. The molecule also yielded a TGI with MOLT-4 leukemia above 100 µM.

Consider `CCN(Cc1ccc(F)cc1)c1ccc(CO)c(OC)c1`, for which the GI50 in the experiment with NCI-H522 lung was 6.61 µM; with NCI-H226 lung, 1.15 µM; with T-47D breast it was 6.32 µM; in the experiment on MDA-MB-435 it was 25.7 µM; with HOP-62 NSCLC, 40.8 µM; with SK-MEL-5 melanoma, 11.9 µM. In addition, in the experiment with MOLT-4 leukemia, the GI50 is 20.1 µM. Also, the TGI with NCI-H522 lung is 20 µM; in the experiment on NCI-H226 lung it was 2.77 µM; in the experiment with T-47D breast, 33.4 µM; in the experiment on MDA-MB-435, above 100 µM; with HOP-62 NSCLC, above 100 µM; in the experiment with SK-MEL-5 melanoma, 24.9 µM. The molecule also showed a TGI in the experiment on MOLT-4 leukemia of 72.4 µM.

As for `N#CC1C(=O)NC(c2ccccc2[N+](=O)[O-])c2sc3c(F)cccc3c21` (configuration not stated), the GI50 in the experiment on NCI-H522 lung is 14.1 µM; in the experiment on NCI-H226 lung, 0.273 µM; in the experiment with T-47D breast, 0.241 µM; in the experiment with MDA-MB-435 it was 23.2 µM; in the experiment with HOP-62 NSCLC, 2.12 µM; with SK-MEL-5 melanoma it was 14.3 µM. Moreover, in the experiment on MOLT-4 leukemia, the GI50 is 15.4 µM. Moreover, the TGI was 48 µM in the experiment with NCI-H522 lung; 2.55 µM in the experiment with NCI-H226 lung; 20.7 µM with T-47D breast; above 83.9 µM in the experiment on MDA-MB-435; 28.9 µM in the experiment with HOP-62 NSCLC; 33.8 µM with SK-MEL-5 melanoma. Further, in the experiment with MOLT-4 leukemia, the TGI is above 73 µM.

With `COc1cc(/C=C/C(=O)c2c(C)nc3ccccc3c2C)ccc1OCCCN1CCN(C(=O)c2ccco2)CC1`, the GI50 was 5.06 µM in the experiment with NCI-H522 lung; 13.7 µM in the experiment with NCI-H226 lung; 2.5 µM with T-47D breast; 4.55 µM in the experiment with MDA-MB-435; 14.7 µM with HOP-62 NSCLC; 2.12 µM in the experiment with SK-MEL-5 melanoma. In addition, the GI50 in the experiment on MOLT-4 leukemia was 0.528 µM. Further, the TGI in the experiment on NCI-H522 lung was found to be 23.9 µM; in the experiment on NCI-H226 lung it was 29.9 µM; in the experiment on T-47D breast it was 15 µM; with MDA-MB-435 it was 19.8 µM; in the experiment with HOP-62 NSCLC it was 30 µM; in the experiment on SK-MEL-5 melanoma, 12.6 µM. The molecule further showed a TGI with MOLT-4 leukemia of 8 µM.

Consider `C/C(=N/Nc1nc(C)cc(=O)[nH]1)C(=O)O`, for which the TGI with NCI-H522 lung, in the experiment with NCI-H226 lung, in the experiment on T-47D breast, in the experiment with MDA-MB-435, with HOP-62 NSCLC and in the experiment on SK-MEL-5 melanoma was above 100 µM throughout. This molecule had a TGI in the experiment with MOLT-4 leukemia above 100 µM.

In the case of `Cc1ccc(OCC2OC(n3cnc4c(Br)nc(Br)nc43)CC2Oc2ccc(C)cc2)cc1` (configuration not stated), the GI50 with NCI-H522 lung was 1.65 µM; with NCI-H226 lung, 1.63 µM; with T-47D breast it was 2.48 µM; with MDA-MB-435, 6.85 µM; in the experiment on HOP-62 NSCLC, 9.08 µM; in the experiment on SK-MEL-5 melanoma, 13.4 µM. Besides, the TGI is 2.8 µM and 3.27 µM with NCI-H522 lung; 33 µM and 3.77 µM in the experiment on NCI-H226 lung; 29.7 µM and 6.82 µM with T-47D breast; 19.4 µM and 19.5 µM in the experiment on MDA-MB-435; 19.2 µM and 17.1 µM with HOP-62 NSCLC; 23.8 µM and 23.7 µM in the experiment on SK-MEL-5 melanoma. Moreover, in the experiment with MOLT-4 leukemia, the TGI was 4.34 µM and 5.42 µM.

As to `CN(C)CCOC(=O)Nc1nc2ccc(Sc3ccccc3)cc2[nH]1`, the GI50 in the experiment on NCI-H522 lung was 2.58 µM; with NCI-H226 lung, 4.61 µM; in the experiment with T-47D breast it was 4.66 µM; in the experiment on MDA-MB-435 it was 0.432 µM; in the experiment on HOP-62 NSCLC, 3.94 µM; with SK-MEL-5 melanoma, 3.31 µM. For the same molecule, the GI50 in the experiment on MOLT-4 leukemia is 5.32 µM. Besides, the TGI in the experiment with NCI-H522 lung was found to be 10.8 µM; in the experiment on NCI-H226 lung, 28.1 µM; with T-47D breast, 21.4 µM; in the experiment with MDA-MB-435, 2.26 µM; in the experiment on HOP-62 NSCLC, 15.5 µM; in the experiment on SK-MEL-5 melanoma it was 12.5 µM. In addition, in the experiment with MOLT-4 leukemia, the TGI was determined as 20.1 µM.

Take `COc1ccc2c(c1OC(C)=O)C1=CC(=O)CCC13CCNC3C2` (configuration not stated): the TGI in the experiment with NCI-H522 lung, with NCI-H226 lung, in the experiment on T-47D breast, with MDA-MB-435, in the experiment with HOP-62 NSCLC and in the experiment on SK-MEL-5 melanoma was above 100 µM throughout. Also, the TGI in the experiment with MOLT-4 leukemia is above 100 µM.

On to `C=C1C(=O)O[C@H]2[C@H]1CC/C(COC(=O)NCCCCCCCCNC(=O)OC/C1=C/CC[C@@]3(C)O[C@H]3[C@H]3OC(=O)C(=C)[C@@H]3CC1)=C\CC[C@@]1(C)O[C@@H]21`, for which the GI50 with NCI-H522 lung is 0.186 µM; with NCI-H226 lung, 1.81 µM; in the experiment on T-47D breast, 0.323 µM; in the experiment with MDA-MB-435, 0.241 µM; with HOP-62 NSCLC it was 1.53 µM; with SK-MEL-5 melanoma it was 1.21 µM. The GI50 in the experiment on MOLT-4 leukemia is 0.33 µM. Besides, the TGI in the experiment with NCI-H522 lung is 0.407 µM; in the experiment on NCI-H226 lung, 4.39 µM; in the experiment with T-47D breast it was 0.915 µM; in the experiment with MDA-MB-435, 0.686 µM; with HOP-62 NSCLC, 3.49 µM; with SK-MEL-5 melanoma it was 2.59 µM. In the experiment on MOLT-4 leukemia, this molecule showed a TGI of 1.18 µM.

With `CSc1ccc(C(=O)/C=C/c2ccccc2Cl)cc1`, the GI50 with NCI-H522 lung is 10.9 µM; in the experiment on NCI-H226 lung, 15.8 µM; in the experiment on T-47D breast it was 23.5 µM; in the experiment on MDA-MB-435 it was 12.4 µM; in the experiment with HOP-62 NSCLC, 17.4 µM; in the experiment with SK-MEL-5 melanoma, 16.7 µM. For the same molecule, the GI50 in the experiment on MOLT-4 leukemia is 24 µM. The TGI is 33.1 µM in the experiment on NCI-H522 lung; 37.6 µM in the experiment with NCI-H226 lung; above 100 µM in the experiment with T-47D breast; 30.2 µM with MDA-MB-435; 35.4 µM with HOP-62 NSCLC; 31.6 µM in the experiment on SK-MEL-5 melanoma. The same molecule displayed a TGI in the experiment with MOLT-4 leukemia above 100 µM.

Turning to `FC(F)(F)c1cc(Nc2ccc3cc(OCCCN4CCOCC4)ccc3n2)ccc1Cl`, the GI50 in the experiment on NCI-H522 lung was 2.04 µM; in the experiment with NCI-H226 lung, 2.56 µM; in the experiment with T-47D breast, 2.51 µM; with MDA-MB-435 it was 1.75 µM; with HOP-62 NSCLC it was 1.87 µM; in the experiment with SK-MEL-5 melanoma, 1.64 µM. In the experiment on MOLT-4 leukemia, the GI50 was 2.16 µM. In addition, the TGI in the experiment with NCI-H522 lung came to 3.82 µM; with NCI-H226 lung it was 11.7 µM; with T-47D breast, 7.51 µM; with MDA-MB-435, 3.61 µM; in the experiment on HOP-62 NSCLC, 3.63 µM; in the experiment with SK-MEL-5 melanoma it was 3.16 µM. The molecule further displayed a TGI in the experiment on MOLT-4 leukemia of 6.82 µM.
